Entries after “also recorded” stand apart in the source; their conditions may differ. Like-named read-outs stand apart in the source and are kept apart here.
Legend:
HCC1395 TNBC cell line = assay: MTT survival assay HCC1395; assay type: cell-based; details: Homo sapiens, HCC1395; Table S2; read-out: MTT HCC-1395 IC50
[1] = system: MDA-MB-468 TNBC cell line; assay: MTT survival assay MDA-MB-468; assay type: cell-based; details: Homo sapiens, MDA-MB-468; Table S2
HCC1395 cells = assay: in vitro
in vitro = details: human
[2] = system: panel of luciferase reporters with basal activities in HCC1395 cells; assay: Panel of other luciferase transcriptional reporters in HCC1395; assay type: cell-based; details: HCC1395, 5 µM
Procedure: Compound 5d (IC50 = 0.6 µM, Table 2) was used as a representative to analyze the selectivity of the chemotype towards the Wnt-pathway, by profiling it against a panel of different transcriptional reporters with significant basal activities in HCC1395 cells (Figure 5). […] We thus conclude that the anti-proliferative effect of the compound is related exclusively to the suppressed Wnt signaling.

HCC1806 TNBC cell line = assay: MTT survival assay HCC1806; assay type: cell-based; details: Homo sapiens, HCC1806
[3] = system: non-cancerous breast epithelial cell line MCF10a; assay: MTT survival assay MCF10a; assay type: cell-based; details: for IC50: Homo sapiens, MCF-10A
BT-20 TNBC cell line = assay: MTT survival assay BT-20; assay type: cell-based; details: Homo sapiens, BT-20
[4] = system: β-catenin-dependent Wnt-pathway; assay: TopFlash luciferase reporter assay, CHIR99021-stimulated, HCC1395; assay type: cell-based; details: Homo sapiens, HCC1395, HCC1395, stimulation with CHIR99021 (GSK3β inhibitor); for Emax: read-out: HCC1395 TopFlash Efficacy; for IC50: read-out: HCC1395 TopFlash IC50
[5] = system: MDA-MB-231 TNBC cell line; assay: MTT survival assay MDA-MB-231; assay type: cell-based; details: Table S2; for IC50: Homo sapiens, MDA-MB-231, read-out: MTT MDA-MB-231 IC50
[6] = system: β-catenin-dependent Wnt-pathway; assay: TopFlash luciferase reporter assay, Wnt3a-stimulated, HCC1395; assay type: cell-based; details: Homo sapiens, stimulation with Wnt3a
Description: The advantage of our platform lies in its ability to discriminate between inhibitors of the β-catenin-dependent Wnt signaling acting at upstream vs. downstream levels of the pathway, by stimulating the pathway at the different levels either with Wnt3a or with a GSK3β inhibitor, like CHIR99021 ([Shaw et al., 2019b]). Both stimulations abolish formation of the destruction complex, a multiprotein complex consisting of Axin, adenomatous polyposis coli (APC), glycogen synthase kinase three beta (GSK3β), and casein kinase one alpha (CK1α). Upon inactivation of the complex, β-catenin accumulates in the cytoplasm and translocates into the nucleus where it interacts with transcription factors. These downstream events are quantified by a Luciferase transcription-based readout assay (TopFlash assay).

[7] = Table S2, read-out: MTT HCC1806 IC50
[8] = Table S2, read-out: MTT MCF10 IC50
[9] = Table S2, read-out: MTT BT-20 IC50

In the case of `CC(Nc1ncnc2sccc12)c1ccc(Cl)cc1` (centres unmarked) [Compound 5d, N-(1-(4-chlorophenyl)ethyl)thieno[2,3-d]pyrimidin-4-amine], the IC50 (HCC1395 TNBC cell line) is reported as 390 nM, the IC50 [1] is reported as 1670 nM and the “HCC1395 Cytotoxicity Efficacy” value (HCC1395 cells; human) is reported as 100 ± 0%. The IC50 (in vitro; HCC1395 Cytotoxicity IC50) was 24 ± 4.98 µM, the “inhibition of other signaling pathway reporters” value [2] was “none other signaling pathways are affected; also recorded: no inhibition” and the IC50 (HCC1806 TNBC cell line; Figure 3B heatmap, read-out: IC50, μM (HCC1806)) was greater than 50 µM. For the same molecule, the IC50 (HCC1806 TNBC cell line; [7]) was 9.12 µM, the IC50 ([3]; Figure 3B heatmap, read-out: IC50, μM (MCF10)) was greater than 10 µM and the IC50 [3, 8] was 6.48 µM. The IC50 (BT-20 TNBC cell line; Figure 3B heatmap, no activity up to maximal tested concentration, read-out: IC50, μM (BT20)) was greater than 50 µM, the IC50 (BT-20 TNBC cell line; [9]) was 6.89 µM and the Emax [4] was 55.4 ± 24.3%. The IC50 [4] was 0.6 ± 0.33 µM, the IC50 [5] was greater than 10 µM and the “MTT MDA-MB-231 Comments” value [5] was “Inactive”.
`c1ccc(CNc2ncnc3sccc23)cc1` [Compound 4a, N-benzylthieno[2,3-d]pyrimidin-4-amine] gave an IC50 [6] of 8.31 µM, an IC50 (HCC1395 TNBC cell line) of 2520 nM and an IC50 [1] of 2130 nM. The “Cytotoxicity (Renilla) in words” value (HCC1395 cells; HCC1395) was “not toxic; also recorded: no cytotoxic activity”, the “GSK HCC1395 Renilla Comments” value (HCC1395 cells; Table S2) was “Non-toxic” and the IC50 (in vitro) was greater than 50 µM. The IC50 (HCC1806 TNBC cell line; [7]) was 2.33 µM, the IC50 [3, 8] was greater than 10 µM and the “MTT MCF10 Comments” value ([3]; Table S2) was “Inactive”. For the same molecule, the IC50 (BT-20 TNBC cell line; [9]) was 16.3 µM, the Emax [4] was 72% and the IC50 [4] was 8.47 µM. For the same molecule, the IC50 [5] was 19.2 µM and the “MTT MDA-MB-231 plateau” value [5] was 100.
